In the SangsterLogP compilation one finds logD data, which are given here for ten compounds.

As usually defined, the logD is the decadic logarithm of the distribution of all forms, ionised or not, between an organic phase and buffer at a given pH. Lower therefore signals a more hydrophilic compound.

The nature of the data set: method code SF-GLC, from DOI: 10.1016/s0022-3565(25)29827-5, PMID: 4823294. Conditions: pH 7.4.
In turn, `CCC(C)(C)COC(N)=O` came in with a log distribution coefficient (logD) of 1.45.
Next, `CCCCCOC(N)=O`: 1.35.
As to `NC(=O)OCc1ccccc1`, the log distribution coefficient (logD) was 1.23.
With `CCCCCCOC(N)=O`, the logD was determined as 1.85.
`CC(C)(C)OC(N)=O`: the logD came to 0.48.
The result for `CCCCCCCOC(N)=O` reads 2.36; that for `CCCCCCCCOC(N)=O`, 2.84; that for `CC(C)(C)COC(N)=O`, 0.94.
In the case of `CCCCOC(N)=O`, the logD is 0.85.
The result for `CCCOC(N)=O` reads 0.36.
